According to patent US20090098589A1 (priority 2006, published 2009):

Key:
Format in all cases: biochemical
[1] = test system: Calf intestine phosphatase; experiment: Phosphate release from substrate by enzyme, microtitre plate, molybdate detection; conditions: 10 mM substrate, pH 7.5, 1 h, 37° C.
Procedure: (§1) Enzymatic assays were carried out in microtitre plates in 100 μl of reaction mixture. The reaction mixture for acid phytases and phosphatases included: 10 mM of substrate in 200 mM sodium acetate buffer, pH 5.5 containing 0.8 mM CaCl2. For alkaline phytases and phosphatases the same conditions were used except sodium acetate buffer was replaced with 200 mM Tris*HCl buffer, pH 7.5. The reactions were allowed to proceed for 1 h at 37° C. after which time the released phosphate was measured by a modification of a known procedure (Heinonen J. K., Lahti R. J. Anal Biochem. 113 (2), 313-317 (1981)). Briefly, 200 pLI of a freshly prepared AMM solution ([…], 15 mM ammonium molybdate and acetone—1:1:2) was added to the 100 μl reaction mixture in each microtitre plate well. The absorbance at 390 nm was measured not earlier than 10 min and not later than 30 min after addition of the AMM reagent. The amount of phosphate was determined by building a calibration curve with phosphate solutions of known concentrations.
(§2) Both phytases and phosphatases catalyse the hydrolysis of phosphoesters. Thus, the difference between these two groups of enzymes is quantitative rather than qualitative and can be defined as the relative efficiency in hydrolysis of phytate and simple monophosphoesters such as e.g. glucose 6-phosphate or fructose 6-phosphate. Phosphatases tend to be relatively inefficient in hydrolysing phytate, and, conversely, most phytases hydrolyse mono-substituted sugar phosphates inefficiently. To test whether polyphosphorylated polyhydroxybenzenes can be used as mimics of phytate we have tested phosphate release from hexaphospho-benzenehexaol and fructose 6-phosphate by several different phytases and phosphatases. Phytases from Aspergillus niger (Natuphos^R), Escherichia coli (Phyzyme XP^R) and Peniophora lycii (Ronozyme^R) as well as potato acid phosphatase were assayed at pH 5.5 while alkaline bacterial phosphatase calf intestinal phosphatase and shrimp phosphatase were assayed at pH 7.5.

[2] = test system: Shrimp phosphatase; experiment: as above; conditions: 10 mM substrate, pH 7.5, 1 h, 37° C.
Procedure: as §1, §2

[3] = target: T1, A. niger phytase (Natuphos^R) (Aspergillus niger, UniProt P34752); experiment: as above; conditions: 10 mM substrate, pH 5.5, 1 h, 37° C.
T1 construct: purchased
Procedure: as §1, §2

[4] = test system: Peniophora lycii phytase (Ronozyme^R); experiment: as above; conditions: 10 mM substrate, pH 5.5, 1 h, 37° C.
Procedure: as §1, §2

[5] = target: Bacterial alkaline phosphatase (Escherichia coli, UniProt P00634); experiment: as above; conditions: 10 mM substrate, pH 7.5, 1 h, 37° C.
Procedure: as §1, §2

[6] = target: T2, E. coil phytase (Phyzyme XP^R) (Escherichia coli, UniProt P07102); experiment: as above; conditions: 10 mM substrate, pH 5.5, 1 h, 37° C.
T2 construct: purchased
Procedure: as §1, §2

[7] = test system: Potato acid phosphatase; experiment: as above; conditions: 10 mM substrate, pH 5.5, 1 h, 37° C.
Procedure: as §1, §2

[8] = test system: typical phosphatases; experiment: Phosphate release from substrate, summary for typical phosphatases; conditions: all tested typical phosphatases, compared with fructose 6-phosphate
Procedure: as §1
(§3) Both phytases and phosphatases catalyse the hydrolysis of phosphoesters. Thus, the difference between these two groups of enzymes is quantitative rather than qualitative and can be defined as the relative efficiency in hydrolysis of phytate and simple monophosphoesters such as e.g. glucose 6-phosphate or fructose 6-phosphate. […]

[9] = test system: all tested phytases; experiment: Phosphate release from substrate, summary for all tested phytases; conditions: compared with fructose 6-phosphate
Procedure: as §1, §3

T2 sequence (P07102 23-432): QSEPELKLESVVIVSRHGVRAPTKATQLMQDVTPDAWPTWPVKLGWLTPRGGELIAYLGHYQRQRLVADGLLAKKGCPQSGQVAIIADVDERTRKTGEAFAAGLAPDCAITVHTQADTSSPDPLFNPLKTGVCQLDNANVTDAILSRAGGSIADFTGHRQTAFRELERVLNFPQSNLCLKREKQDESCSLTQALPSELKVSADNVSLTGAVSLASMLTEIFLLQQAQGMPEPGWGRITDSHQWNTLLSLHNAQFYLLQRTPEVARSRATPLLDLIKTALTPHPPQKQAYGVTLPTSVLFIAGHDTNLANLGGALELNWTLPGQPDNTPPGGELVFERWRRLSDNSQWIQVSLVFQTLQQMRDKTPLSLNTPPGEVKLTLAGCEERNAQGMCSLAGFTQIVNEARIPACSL
T1 sequence (P34752 24-467): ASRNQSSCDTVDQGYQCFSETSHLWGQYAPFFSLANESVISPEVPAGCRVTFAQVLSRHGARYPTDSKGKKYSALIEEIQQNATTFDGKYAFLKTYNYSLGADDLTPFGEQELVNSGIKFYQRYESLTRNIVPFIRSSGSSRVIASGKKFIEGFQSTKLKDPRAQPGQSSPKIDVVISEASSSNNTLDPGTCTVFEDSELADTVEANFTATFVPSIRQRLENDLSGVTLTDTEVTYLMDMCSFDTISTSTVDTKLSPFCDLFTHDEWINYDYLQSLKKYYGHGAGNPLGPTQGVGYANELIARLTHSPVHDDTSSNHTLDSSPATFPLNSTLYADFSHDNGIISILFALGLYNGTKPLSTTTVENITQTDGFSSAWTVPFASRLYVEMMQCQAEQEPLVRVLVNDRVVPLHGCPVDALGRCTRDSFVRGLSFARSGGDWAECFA
Chain of Bacterial alkaline phosphatase (P00634 22-471): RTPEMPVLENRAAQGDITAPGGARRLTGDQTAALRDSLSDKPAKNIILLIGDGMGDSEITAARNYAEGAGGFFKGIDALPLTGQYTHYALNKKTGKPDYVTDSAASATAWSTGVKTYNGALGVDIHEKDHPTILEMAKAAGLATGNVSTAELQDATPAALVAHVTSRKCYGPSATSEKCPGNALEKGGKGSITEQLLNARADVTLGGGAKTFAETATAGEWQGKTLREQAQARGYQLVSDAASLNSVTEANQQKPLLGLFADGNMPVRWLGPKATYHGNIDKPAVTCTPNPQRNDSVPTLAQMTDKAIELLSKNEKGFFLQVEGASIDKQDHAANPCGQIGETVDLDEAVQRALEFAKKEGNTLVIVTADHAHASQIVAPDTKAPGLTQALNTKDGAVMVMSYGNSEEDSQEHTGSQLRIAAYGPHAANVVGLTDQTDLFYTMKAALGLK

For `O=P(O)(O)Oc1cc(OP(=O)(O)O)cc(OP(=O)(O)O)c1`, the “Ratio of phosphate-releasing activities with the substrate and fructose 6-P” value (shortened to “Ratio … with the substrate and fructose 6-P”) [1] was 1.0, the “Ratio … with the substrate and fructose 6-P” value [2] was 3.8 and the “Ratio … with the substrate and fructose 6-P” value [3] was 280. The “Ratio … with the substrate and fructose 6-P” value [4] was 250, the “Ratio … with the substrate and fructose 6-P” value [5] was 1.0 and the “Ratio … with the substrate and fructose 6-P” value [6] was 500. The “Ratio … with the substrate and fructose 6-P” value [7] was 3.9, the “Quality as substrate for typical phosphatases (in words)” value [8] was “good substrate” and the “Quality as substrate for all tested phytases (in words)” value [9] was “good substrate”.

With `O=P(O)(O)Oc1c(OP(=O)(O)O)c(OP(=O)(O)O)c(OP(=O)(O)O)c(OP(=O)(O)O)c1OP(=O)(O)O` [benzenehexaol hexaphosphate, Benzenehexaol hexaphosphate] the “Ratio … with the substrate and fructose 6-P” value [1] was 0.01, the “Ratio … with the substrate and fructose 6-P” value [2] was 0.1 and the “Ratio … with the substrate and fructose 6-P” value [3] was 250. For the same compound, the “Ratio … with the substrate and fructose 6-P” value [4] was 2.7, the “Ratio … with the substrate and fructose 6-P” value [5] was 0.01 and the “Ratio … with the substrate and fructose 6-P” value [6] was 122. The “Ratio … with the substrate and fructose 6-P” value [7] was 0.23, the “Quality as substrate for typical phosphatases (in words)” value [8] was “the opposite is true” and the “Quality as substrate for all tested phytases (in words)” value [9] was “much better substrate than fructose 6-phosphate”.
